Measured values taken from US20100137449A1, “SUBSTITUTED 1,3-CYCLOPENTADIONE MULTI-TARGET PROTEIN KINASE MODULATORS OF CANCER, ANGIOGENESIS AND THE INFLAMMATORY PATHWAYS ASSOCIATED THEREWITH” (METAPROTEOMICS, LLC, priority 2007, published 2010).

How the values were obtained:
Assay in all cases: KinaseProfiler Assay
CaMKII(r) = molecular target: CaMKII(r)
Pim-1(h) = Pim-1(h) (Homo sapiens, UniProt P11309)
PDGFRα(D842V)(h) = PDGFRα(D842V)(h) (Homo sapiens, UniProt P16234, D842V)
Aurora-A(h) = molecular target: T1, Aurora-A(h) (Homo sapiens, UniProt O14965)
T1 sequence (O14965 1-403): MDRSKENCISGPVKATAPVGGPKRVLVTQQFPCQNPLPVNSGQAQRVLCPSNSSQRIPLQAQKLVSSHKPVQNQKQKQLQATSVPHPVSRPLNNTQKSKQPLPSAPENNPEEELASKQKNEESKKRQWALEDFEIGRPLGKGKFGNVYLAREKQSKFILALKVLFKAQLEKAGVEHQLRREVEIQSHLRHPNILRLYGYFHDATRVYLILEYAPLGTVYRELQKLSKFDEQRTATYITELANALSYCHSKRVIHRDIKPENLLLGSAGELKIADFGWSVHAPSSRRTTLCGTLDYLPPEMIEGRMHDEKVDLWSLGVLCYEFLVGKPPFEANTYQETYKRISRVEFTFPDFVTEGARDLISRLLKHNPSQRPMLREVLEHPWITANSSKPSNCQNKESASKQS

DRAK1(h) = molecular target: T2, DRAK1(h) (Homo sapiens, UniProt Q9UEE5)
T2 sequence (Q9UEE5 1-414): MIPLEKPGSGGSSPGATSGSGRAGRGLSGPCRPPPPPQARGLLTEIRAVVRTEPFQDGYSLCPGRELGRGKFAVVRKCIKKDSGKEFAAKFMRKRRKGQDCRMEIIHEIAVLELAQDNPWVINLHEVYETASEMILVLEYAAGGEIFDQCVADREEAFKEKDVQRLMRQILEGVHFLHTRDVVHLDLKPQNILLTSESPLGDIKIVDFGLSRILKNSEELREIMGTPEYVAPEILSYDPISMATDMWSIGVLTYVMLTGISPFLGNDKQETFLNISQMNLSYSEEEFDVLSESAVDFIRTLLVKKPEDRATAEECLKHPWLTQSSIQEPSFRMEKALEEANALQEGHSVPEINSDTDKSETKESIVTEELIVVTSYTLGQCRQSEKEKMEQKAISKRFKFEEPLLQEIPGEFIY

Syk(h) = Syk(h) (Homo sapiens, UniProt P43405)
ALK4(h) = molecular target: T3, ALK4(h) (Homo sapiens, UniProt P36896)
T3 sequence (P36896 24-505): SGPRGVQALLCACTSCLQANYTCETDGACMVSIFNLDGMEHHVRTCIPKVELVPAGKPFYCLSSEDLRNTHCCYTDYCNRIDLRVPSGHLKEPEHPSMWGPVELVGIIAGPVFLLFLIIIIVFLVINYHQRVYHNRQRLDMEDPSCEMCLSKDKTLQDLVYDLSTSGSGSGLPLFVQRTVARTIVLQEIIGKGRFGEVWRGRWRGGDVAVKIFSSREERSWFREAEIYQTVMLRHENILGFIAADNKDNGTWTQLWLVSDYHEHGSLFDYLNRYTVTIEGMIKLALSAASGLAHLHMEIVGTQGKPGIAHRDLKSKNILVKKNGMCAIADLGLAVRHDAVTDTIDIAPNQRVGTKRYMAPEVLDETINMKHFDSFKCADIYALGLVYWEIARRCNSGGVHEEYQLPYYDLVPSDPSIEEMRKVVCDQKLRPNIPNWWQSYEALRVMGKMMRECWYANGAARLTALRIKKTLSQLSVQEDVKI

SGK(h) = molecular target: T4, SGK(h) (Homo sapiens, UniProt O00141)
T4 sequence (O00141 1-431): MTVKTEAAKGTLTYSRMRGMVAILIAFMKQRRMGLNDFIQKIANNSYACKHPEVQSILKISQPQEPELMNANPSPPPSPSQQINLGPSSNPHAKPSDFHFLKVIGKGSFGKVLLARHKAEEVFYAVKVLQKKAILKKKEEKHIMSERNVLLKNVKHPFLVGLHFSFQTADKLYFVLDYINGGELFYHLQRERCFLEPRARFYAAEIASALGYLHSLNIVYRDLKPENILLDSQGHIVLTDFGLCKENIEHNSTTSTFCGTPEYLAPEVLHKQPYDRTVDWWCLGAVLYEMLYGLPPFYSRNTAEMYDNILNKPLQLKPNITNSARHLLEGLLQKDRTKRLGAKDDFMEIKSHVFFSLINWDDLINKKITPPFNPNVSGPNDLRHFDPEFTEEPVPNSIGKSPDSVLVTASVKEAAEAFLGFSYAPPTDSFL

Abl(Q252H)(h) = Abl(Q252H)(h) (Homo sapiens, UniProt P00519, Q252H)
Abl(T315I)(h) = Abl(T315I)(h) (Homo sapiens, UniProt P00519, T315I)

Chain of Pim-1(h) (P11309 whole entry): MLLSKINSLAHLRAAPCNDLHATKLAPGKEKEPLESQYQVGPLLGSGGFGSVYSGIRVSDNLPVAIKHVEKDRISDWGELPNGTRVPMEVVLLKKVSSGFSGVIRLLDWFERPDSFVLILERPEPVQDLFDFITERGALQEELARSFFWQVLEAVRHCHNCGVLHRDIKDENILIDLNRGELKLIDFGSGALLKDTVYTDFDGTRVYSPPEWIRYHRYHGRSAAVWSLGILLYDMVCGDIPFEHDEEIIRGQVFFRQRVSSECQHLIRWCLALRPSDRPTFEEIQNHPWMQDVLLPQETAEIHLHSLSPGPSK
Chain of PDGFRα(D842V)(h) (P16234 24-1089 D842V): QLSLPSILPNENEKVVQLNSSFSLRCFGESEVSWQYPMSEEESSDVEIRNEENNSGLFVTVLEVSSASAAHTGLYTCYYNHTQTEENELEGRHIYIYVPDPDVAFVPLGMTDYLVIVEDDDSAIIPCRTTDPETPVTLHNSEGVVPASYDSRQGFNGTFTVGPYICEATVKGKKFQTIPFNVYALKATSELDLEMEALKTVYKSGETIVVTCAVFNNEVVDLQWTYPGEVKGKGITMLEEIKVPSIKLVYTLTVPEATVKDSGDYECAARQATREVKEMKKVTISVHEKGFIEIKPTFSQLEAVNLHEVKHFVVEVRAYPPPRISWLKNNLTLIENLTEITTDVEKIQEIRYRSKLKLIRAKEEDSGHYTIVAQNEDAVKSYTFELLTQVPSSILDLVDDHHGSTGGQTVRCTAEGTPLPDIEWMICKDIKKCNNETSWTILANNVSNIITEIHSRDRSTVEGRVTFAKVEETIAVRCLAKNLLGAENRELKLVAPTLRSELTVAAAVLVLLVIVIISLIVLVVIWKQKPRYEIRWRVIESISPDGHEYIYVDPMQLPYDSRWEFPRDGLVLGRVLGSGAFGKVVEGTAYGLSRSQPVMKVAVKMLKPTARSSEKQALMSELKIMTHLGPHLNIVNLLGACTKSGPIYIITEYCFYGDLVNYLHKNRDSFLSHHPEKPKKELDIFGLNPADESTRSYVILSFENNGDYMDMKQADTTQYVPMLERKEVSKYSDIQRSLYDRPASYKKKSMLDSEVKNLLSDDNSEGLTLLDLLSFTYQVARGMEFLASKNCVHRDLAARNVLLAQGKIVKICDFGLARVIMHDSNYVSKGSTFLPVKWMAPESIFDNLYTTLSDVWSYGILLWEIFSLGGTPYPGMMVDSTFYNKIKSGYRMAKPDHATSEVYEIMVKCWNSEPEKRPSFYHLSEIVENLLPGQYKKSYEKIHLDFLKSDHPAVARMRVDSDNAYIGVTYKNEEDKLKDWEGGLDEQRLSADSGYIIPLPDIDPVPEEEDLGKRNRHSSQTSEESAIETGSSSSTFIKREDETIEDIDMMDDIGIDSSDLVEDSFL

## CC(C)CCC(=O)[C@]1(O)C(O)=C(C(=O)C(C)C)C(=O)[C@H]1CCC(C)C [TH2, tetrahydroiso-cohumulone]
CaMKII(r); 1 μg/ml
  kinase inhibition: 105% of control
CaMKII(r); 5 μg/ml
  kinase inhibition: 106% of control
CaMKII(r); 25 μg/ml
  kinase inhibition: 105% of control
CaMKII(r); 50 μg/ml
  kinase inhibition: 91% of control
CaMKII(r); 100 μg/ml
  kinase inhibition: 63% of control
Pim-1(h); 1 μg/ml
  kinase inhibition: 86% of control
Pim-1(h); 5 μg/ml
  kinase inhibition: 100% of control
Pim-1(h); 25 μg/ml
  kinase inhibition: 87% of control
Pim-1(h); 50 μg/ml
  kinase inhibition: 84% of control
Pim-1(h); 100 μg/ml
  kinase inhibition: 55% of control
PDGFRα(D842V)(h); 1 μg/ml
  kinase inhibition: 113% of control
PDGFRα(D842V)(h); 5 μg/ml
  kinase inhibition: 124% of control
PDGFRα(D842V)(h); 25 μg/ml
  kinase inhibition: 128% of control
PDGFRα(D842V)(h); 50 μg/ml
  kinase inhibition: 129% of control
PDGFRα(D842V)(h); 100 μg/ml
  kinase inhibition: 127% of control
Aurora-A(h); 1 μg/ml
  kinase inhibition: 65% of control
Aurora-A(h); 5 μg/ml
  kinase inhibition: 24% of control
Aurora-A(h); 25 μg/ml
  kinase inhibition: 71% of control
Aurora-A(h); 50 μg/ml
  kinase inhibition: 57% of control
Aurora-A(h); 100 μg/ml
  kinase inhibition: 54% of control
DRAK1(h); 1 μg/ml
  kinase inhibition: 103% of control
DRAK1(h); 5 μg/ml
  kinase inhibition: 106% of control
DRAK1(h); 25 μg/ml
  kinase inhibition: 107% of control
DRAK1(h); 50 μg/ml
  kinase inhibition: 93% of control
DRAK1(h); 100 μg/ml
  kinase inhibition: 79% of control
Syk(h); 1 μg/ml
  kinase inhibition: 135% of control
Syk(h); 5 μg/ml
  kinase inhibition: 120% of control
Syk(h); 25 μg/ml
  kinase inhibition: 63% of control
Syk(h); 50 μg/ml
  kinase inhibition: 37% of control
Syk(h); 100 μg/ml
  kinase inhibition: 47% of control
ALK4(h); 1 μg/ml
  kinase inhibition: 109% of control
ALK4(h); 5 μg/ml
  kinase inhibition: 104% of control
ALK4(h); 25 μg/ml
  kinase inhibition: 97% of control
ALK4(h); 50 μg/ml
  kinase inhibition: 83% of control
ALK4(h); 100 μg/ml
  kinase inhibition: 63% of control
SGK(h); 1 μg/ml
  kinase inhibition: 106% of control
SGK(h); 5 μg/ml
  kinase inhibition: 96% of control
SGK(h); 25 μg/ml
  kinase inhibition: 97% of control
SGK(h); 50 μg/ml
  kinase inhibition: 92% of control
SGK(h); 100 μg/ml
  kinase inhibition: 76% of control
Abl(Q252H)(h); 1 μg/ml
  kinase inhibition: 96% of control
Abl(Q252H)(h); 5 μg/ml
  kinase inhibition: 96% of control
Abl(Q252H)(h); 25 μg/ml
  kinase inhibition: 66% of control
Abl(Q252H)(h); 50 μg/ml
  kinase inhibition: 68% of control
Abl(Q252H)(h); 100 μg/ml
  kinase inhibition: 47% of control
Abl(T315I)(h); 1 μg/ml
  kinase inhibition: 102% of control
Abl(T315I)(h); 5 μg/ml
  kinase inhibition: 98% of control
Abl(T315I)(h); 25 μg/ml
  kinase inhibition: 79% of control
Abl(T315I)(h); 50 μg/ml
  kinase inhibition: 68% of control
Abl(T315I)(h); 100 μg/ml
  kinase inhibition: 58% of control
